Experimental data taken from PubChem BioAssay AID330 (DTP/NCI, 2004).
Where “and” joins values, the source holds several entries; their conditions need not be identical. Equal entries are not always repeated. Inconclusive results and toxic doses are left out. Rule for the calls: active = survival T/C of 150% or more; inactive = T/C below 125% in these data.

Tested on: P388 leukemia ip, CD2F1 mice, survival T/C
Test: NCI In Vivo Anticancer Drug Screen. Data for tumor model P388 Leukemia (intraperitoneal) in CD2F1 (CDF1) mice
Conditions: endpoint: median survival time, higher = longer survival
Description: The antitumor activity of compounds was measured in mice bearing transplantable tumors. Survival or tumor size were measured and the results are expressed as the measurement made in the treated group (T) divided by the measurement made in the vehicle treated control group (C). The tumor model used in this assay is P388 Leukemia (intraperitoneal) in CD2F1 (CDF1) mice

[1] = dose: 50.0 mg/kg/injection, schedule: Q01DX009 (ip), vehicle: saline
[2] = dose: 12.5 mg/kg/injection, schedule: Q01DX005 (ip), vehicle: saline with Tween-80
[3] = dose: 25.0 mg/kg/injection, schedule: Q01DX005 (ip), vehicle: saline with Tween-80
[4] = dose: 50.0 mg/kg/injection, schedule: Q01DX005 (ip), vehicle: saline with Tween-80
[5] = dose: 200.0 mg/kg/injection, schedule: Q01DX005 (ip), vehicle: saline with Tween-80

Measured: T/C

N#CCCNNc1ccccc1
inactive: dose: 50.0 mg/kg/injection, schedule: Q01DX001 (ip), vehicle: saline 100 % of control | dose: 100.0 mg/kg/injection, schedule: Q01DX001 (ip), vehicle: saline 106 % of control | dose: 200.0 mg/kg/injection, schedule: Q01DX001 (ip), vehicle: saline 97 % of control

CCCCCCN(CCCCCC)/C(N)=N/O
inactive: dose: 5.0 mg/kg/injection, schedule: Q01DX009 (ip), vehicle: saline with Tween-80 113 % of control | dose: 10.0 mg/kg/injection, schedule: Q01DX009 (ip), vehicle: saline with Tween-80 105 % of control | dose: 20.0 mg/kg/injection, schedule: Q01DX009 (ip), vehicle: saline with Tween-80 116 % of control

N#C/C(=C\c1ccccn1)c1nc(-c2ccc(Cl)cc2)cs1
inactive: [1] 102 % of control | dose: 100.0 mg/kg/injection, schedule: Q01DX009 (ip), vehicle: saline 92 % of control | dose: 200.0 mg/kg/injection, schedule: Q01DX009 (ip), vehicle: saline 92 % of control

CN1C(C)(C)CC(C)(O)CC1(C)C
inactive: dose: 50.0 mg/kg/injection, schedule: Q01DX005 (ip), vehicle: saline 91 % of control | dose: 100.0 mg/kg/injection, schedule: Q01DX005 (ip), vehicle: saline 94 % of control | dose: 200.0 mg/kg/injection, schedule: Q01DX005 (ip), vehicle: saline 106 % of control

Cc1ncc(N)c2c1OC(C)(C)OC2
inactive: [2] 102 % of control | [3] 103 % of control | [4] 99 % of control and 101 % of control

O=C1c2ccccc2SC[C@@H]2CCCN12
inactive: dose: 60.0 mg/kg/injection, schedule: Q01DX005 (ip), vehicle: saline 101 % of control | dose: 120.0 mg/kg/injection, schedule: Q01DX005 (ip), vehicle: saline 99 % of control | dose: 240.0 mg/kg/injection, schedule: Q01DX005 (ip), vehicle: saline 99 % of control

CCCNC(=O)Nc1cc(Cl)ccc1OC
inactive: dose: 132.0 mg/kg/injection, schedule: Q04DX003 (ip), vehicle: saline with Tween-80 100 % of control | dose: 200.0 mg/kg/injection, schedule: Q04DX003 (ip), vehicle: saline with Tween-80 100 % of control | dose: 300.0 mg/kg/injection, schedule: Q04DX003 (ip), vehicle: saline with Tween-80 100 % of control

O=c1ccn2c(=O)n1CCCCn1cnc3ncnc(c31)SCCC2
inactive: dose: 50.0 mg/kg/injection, schedule: Q01DX001 (ip), vehicle: Klucel (hydroxypropylcellulose) (HPC) 94 % of control | dose: 100.0 mg/kg/injection, schedule: Q01DX001 (ip), vehicle: Klucel (hydroxypropylcellulose) (HPC) 86 % of control | dose: 200.0 mg/kg/injection, schedule: Q01DX001 (ip), vehicle: Klucel (hydroxypropylcellulose) (HPC) 90 % of control | dose: 400.0 mg/kg/injection, schedule: Q01DX001 (ip), vehicle: Klucel (hydroxypropylcellulose) (HPC) 90 % of control

CCCCCCCCCCCCCCCCCC(=O)[O][Pb]([CH3])([CH3])[CH3]
inactive: dose: 1.25 mg/kg/injection, schedule: Q01DX009 (ip), vehicle: Klucel (hydroxypropylcellulose) (HPC) 107 % of control | dose: 2.5 mg/kg/injection, schedule: Q01DX009 (ip), vehicle: Klucel (hydroxypropylcellulose) (HPC) 113 % of control | dose: 5.0 mg/kg/injection, schedule: Q01DX009 (ip), vehicle: Klucel (hydroxypropylcellulose) (HPC) 101 % of control | dose: 6.25 mg/kg/injection, schedule: Q04DX003 (ip), vehicle: Klucel (hydroxypropylcellulose) (HPC) 94 % of control | dose: 12.5 mg/kg/injection, schedule: Q04DX003 (ip), vehicle: Klucel (hydroxypropylcellulose) (HPC) 111 % of control | dose: 25.0 mg/kg/injection, schedule: Q04DX003 (ip), vehicle: Klucel (hydroxypropylcellulose) (HPC) 92 % of control

[I][Hg][CH2]C1Cc2ccccc2O1 (configuration not stated)
inactive: dose: 6.25 mg/kg/injection, schedule: Q01DX009 (ip), vehicle: saline 90 % of control | dose: 12.5 mg/kg/injection, schedule: Q01DX009 (ip), vehicle: saline 90 % of control | dose: 25.0 mg/kg/injection, schedule: Q01DX009 (ip), vehicle: saline 99 % of control | [1] 96 % of control

O=C1NN=C(c2ccccc2)SC1c1ccccc1 (configuration not stated)
inactive: [2] 93 % of control | [3] 95 % of control | [4] 90 % of control and 92 % of control | [5] 90 % of control

Cc1c(N=Nc2ccccc2Cl)c(-c2ccccc2)nn1C(=S)S
inactive: [4] 111 % of control | dose: 100.0 mg/kg/injection, schedule: Q01DX005 (ip), vehicle: saline with Tween-80 108 % of control | [5] 111 % of control
